Entries after “also recorded” stand apart in the source; their conditions may differ. Like-named read-outs stand apart in the source and are kept apart here.
Assays:
Lsa-nAChR2 (α3β1β2) = Lsa-nAChR2 (α3β1β2) (Lepeophtheirus salmonis, UniProt A0A7S5PZ03+A0A7S5PZ05+A0A7S5Q7H3); assay: cell-based; type: cell-based; conditions: for type of effect on the receptor (agonist / partial-agonist / super-agonist / no effect): dose-response; for agonist screening (pre- and co-application protocol): 1 μM; for Max peak (% Ach): maximal peak current compared to ACh 100 μM
Experimental: (§1) Capped cRNAs were synthesized (T7 mMessage mMachine kit, Ambion, Austin, TX, USA) from the linearized vectors containing the different subunits according to the manufacturer’s protocol. cRNA samples were stored at -80°C until use. Oocytes were ordered from Ecocyte (Germany). Oocytes were microinjected using a Roboinject automatic injection system (Multi Channel Systems, Reutlingen, Germany) with 15–25 nl of cRNA solution (30–300 ng/μl per subunit) and then incubated at 18°C in sterile filtered Barth solution containing: NaCl (88 mM), KCl (1 mM), NaHCO3 (2.4 mM), HEPES (10 mM, pH 7.5), MgSO4·7H2O (0.82 mM), Ca(NO3)2·4H2O (0.33 mM), CaCl2·6H2O (0.41 mM), at pH 7.4, and supplemented with 20 μg/ml of kanamycin, 100 U/ml benzylpenicillin and 100 μg/ml streptomycin. Recordings were made 3–5 days post-cRNA injection.
(§2) Oocytes were impaled with two electrodes filled with 3 M KCl, and their membrane potentials were maintained at -80 mV throughout the experiment. Currents evoked by ACh or drugs were recorded using an automated process equipped with standard two-electrode voltage-clamp configuration (HiClamp, MultiChannel Systems). The principle of this system differs from standard electrophysiology because, instead of applying the compound in the perfusion, the oocyte is moved into a well from a 96-well microtiter plate containing the desired solution. Data were captured at 100 Hz, filtered at 10 Hz, and analyzed using proprietary data acquisition and analysis software running under Matlab (Mathworks Inc., Natick, MA, USA). Additional analyses were performed in Excel (Microsoft, Redmond, WA, USA). […] Concentration-activation curves were fitted with the equation: Y=100/1+10^H(logEC50−X) (1) where Y is the normalized response, logEC50 is the logarithm of the concentration of agonist eliciting half-maximal current amplitude, X is the log of dose or concentration, and H is the slope factor or Hill slope. Individual curves were standardized to the initial ACh (100 μM) application amplitude and subsequently averaged. EC50 values were determined from the mean of at least 3 or more cells.
(§3) Dose-response curves were obtained by sequential applications for 10s of increasing concentrations of ACh or drugs to oocytes expressing Lsa-nAChR1 or Lsa-nAChR2. A total time of 90 s time was allowed between applications for the channel to recover from any desensitization. To test the antagonistic effect of DHbE (Fig 5) and for the screening protocol (Fig 6), cells that evoked a significant current with ACh were exposed to the test compounds at 10 μM respectively 1 μM using a pre-application of 45 s and co-application of 10 s with ACh (1 μM).

Lsa-nAChR1 (α1α2β1β2) = Lsa-nAChR1 (α1α2β1β2) (Lepeophtheirus salmonis, UniProt A0A7S5PZ05+A0A7S5Q3W4+A0A7S5Q7H3+A0A7S5U9A3); assay: cell-based; type: cell-based; conditions: for inward current on average: 10 μM sazetidine A; for agonist screening (pre- and co-application protocol): 1 μM; for Emax: read-out: Max peak (% Ach); for type of effect on the receptor (agonist / partial-agonist / no effect): dose-response
Experimental: as §1, §2, §3

L. salmonis (preadult 2) = assay: In-vivo exposure of preadult salmon lice to 1 mg/L for 24 h; set-up: species or system Lepeophtheirus salmonis; conditions: for Efficacy at 1.0 mg/L (%): preadult 2 parasites
Experimental: The exposure of preadult 2 parasites were conducted as described in [48]. The parasites originated from a salmon louse strain sensitive to all tested compounds [49]. The cultivation of salmon lice was conducted at the NIVA Marine Research Station Solbergstrand in the Oslofjord. Laboratory reared Atlantic salmon of were kept in 1 m^3 tanks supplied with running seawater, salinity 33–35 parts per thousand, temperature 7–9°C. Salmon lice egg strings were harvested from adult females and hatched according to [50]. The preadult salmon lice were harvested on the day of exposure. Fish were anaesthetized with 100 mg/L metacaine for 2 min. The parasites were gently removed from the fish with forceps, placed directly in glass containers filled with 1000 mL filtered seawater and exposed to the compounds within 4 h.
Each group of parasites was exposed to 1 mg/L of the test substance for 24 h. The compounds were dissolved in DMSO and an emulsifier was added immediately before dilution with water. The bottles were finally incubated at 10°C according to [49], with continuous air supply, for 24 h.
After the incubation period was over, the solution with parasites was poured out through a funnel containing a filter. Parasites remaining attached to the bottle wall were classified as alive. Immobilized parasites were collected from the filter. […] All parasites in the two groups were counted and classified according to sex and developmental stage.

[1] = Xenopus oocytes, 1:1 (α:β) ratio
[2] = EC50 (nM), Xenopus oocytes, 1:1 (α:β) ratio
[3] = calculated EC50, text values in μM, 1:1 (α:β) ratio

Sequence of Lsa-nAChR1 (α1α2β1β2) (A0A7S5PZ05 entry or part of it): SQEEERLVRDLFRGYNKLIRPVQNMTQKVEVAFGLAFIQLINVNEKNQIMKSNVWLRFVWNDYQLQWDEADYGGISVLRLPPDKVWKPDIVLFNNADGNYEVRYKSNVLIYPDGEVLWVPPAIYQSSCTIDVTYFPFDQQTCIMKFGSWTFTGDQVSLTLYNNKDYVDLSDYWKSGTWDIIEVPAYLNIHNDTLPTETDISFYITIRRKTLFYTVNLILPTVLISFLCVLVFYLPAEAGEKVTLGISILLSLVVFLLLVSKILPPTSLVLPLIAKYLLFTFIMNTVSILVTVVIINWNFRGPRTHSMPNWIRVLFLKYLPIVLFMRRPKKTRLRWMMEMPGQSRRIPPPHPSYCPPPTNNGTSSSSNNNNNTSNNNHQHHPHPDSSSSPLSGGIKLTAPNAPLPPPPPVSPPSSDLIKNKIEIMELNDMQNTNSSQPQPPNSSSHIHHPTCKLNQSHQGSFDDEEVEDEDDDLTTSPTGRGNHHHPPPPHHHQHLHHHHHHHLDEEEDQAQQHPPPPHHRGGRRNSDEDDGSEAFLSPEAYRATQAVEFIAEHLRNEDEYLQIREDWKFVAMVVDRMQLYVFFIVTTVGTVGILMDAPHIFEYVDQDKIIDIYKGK
Sequence of Lsa-nAChR1 (α1α2β1β2) (A0A7S5Q3W4 entry or part of it): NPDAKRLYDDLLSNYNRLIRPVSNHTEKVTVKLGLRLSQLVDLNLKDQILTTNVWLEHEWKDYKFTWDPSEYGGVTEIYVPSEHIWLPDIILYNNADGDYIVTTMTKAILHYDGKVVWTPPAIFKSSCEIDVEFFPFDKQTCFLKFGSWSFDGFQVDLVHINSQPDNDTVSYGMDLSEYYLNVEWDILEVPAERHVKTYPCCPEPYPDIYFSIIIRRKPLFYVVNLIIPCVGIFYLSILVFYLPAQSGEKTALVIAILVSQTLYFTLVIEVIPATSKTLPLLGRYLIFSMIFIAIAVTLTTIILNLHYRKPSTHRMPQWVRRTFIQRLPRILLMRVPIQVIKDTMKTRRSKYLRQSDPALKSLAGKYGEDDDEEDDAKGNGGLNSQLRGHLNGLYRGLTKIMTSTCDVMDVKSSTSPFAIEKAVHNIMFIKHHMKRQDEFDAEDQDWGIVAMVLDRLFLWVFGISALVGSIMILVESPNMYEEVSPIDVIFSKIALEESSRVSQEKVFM
Sequence of Lsa-nAChR1 (α1α2β1β2) (A0A7S5U9A3 entry or part of it): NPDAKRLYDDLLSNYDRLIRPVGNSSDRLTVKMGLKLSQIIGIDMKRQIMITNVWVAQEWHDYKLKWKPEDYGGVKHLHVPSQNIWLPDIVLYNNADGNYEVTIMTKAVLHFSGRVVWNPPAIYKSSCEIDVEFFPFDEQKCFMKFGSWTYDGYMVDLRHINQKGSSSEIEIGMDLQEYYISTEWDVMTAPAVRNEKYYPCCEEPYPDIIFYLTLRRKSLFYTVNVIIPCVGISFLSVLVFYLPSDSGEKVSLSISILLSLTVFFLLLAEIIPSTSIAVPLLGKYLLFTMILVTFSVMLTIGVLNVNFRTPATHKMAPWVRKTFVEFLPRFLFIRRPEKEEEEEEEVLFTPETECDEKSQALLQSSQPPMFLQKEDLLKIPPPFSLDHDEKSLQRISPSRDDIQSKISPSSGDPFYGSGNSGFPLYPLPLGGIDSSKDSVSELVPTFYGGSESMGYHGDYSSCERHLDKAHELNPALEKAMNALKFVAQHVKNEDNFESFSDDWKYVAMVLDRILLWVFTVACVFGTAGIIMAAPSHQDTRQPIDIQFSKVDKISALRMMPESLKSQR
Sequence of Lsa-nAChR1 (α1α2β1β2) (A0A7S5Q7H3 entry or part of it): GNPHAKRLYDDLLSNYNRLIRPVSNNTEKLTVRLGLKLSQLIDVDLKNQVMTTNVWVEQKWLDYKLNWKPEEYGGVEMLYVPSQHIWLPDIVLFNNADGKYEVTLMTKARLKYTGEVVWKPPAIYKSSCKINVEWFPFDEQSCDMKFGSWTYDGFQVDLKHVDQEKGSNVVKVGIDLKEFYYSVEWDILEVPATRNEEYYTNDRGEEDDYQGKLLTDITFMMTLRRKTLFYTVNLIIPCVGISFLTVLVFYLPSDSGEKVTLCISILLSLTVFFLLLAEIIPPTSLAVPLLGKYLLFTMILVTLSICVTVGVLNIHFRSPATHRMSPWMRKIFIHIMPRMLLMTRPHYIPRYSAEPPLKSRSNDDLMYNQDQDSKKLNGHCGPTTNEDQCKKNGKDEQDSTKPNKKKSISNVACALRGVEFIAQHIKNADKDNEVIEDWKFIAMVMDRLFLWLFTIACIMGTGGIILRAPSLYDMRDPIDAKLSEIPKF

Compound: COP(=O)(OC)SCn1c(=O)oc2cc(Cl)cnc21 [Azamethiphos]
- EC50 (nM) (Lsa-nAChR2 (α3β1β2); [1]): No effect
- EC50 (nM) (Lsa-nAChR1 (α1α2β1β2); [1]): No effect

Compound: OCCCCC#Cc1cncc(OC[C@@H]2CCN2)c1 [sazetidine A, Sazetidine A]
- inward current on average (Lsa-nAChR2 (α3β1β2); 10 μM sazetidine A, α:β = 10:1, n = 3 (assignment uncertain)): 0.50 μA
- responsiveness to sazetidine A (Lsa-nAChR2 (α3β1β2); 10 μM, α:β = 10:1): responsive
- inward current on average (Lsa-nAChR1 (α1α2β1β2); α:β = 1:10, n = 3): 0.22 μA
- inward current on average (Lsa-nAChR1 (α1α2β1β2); α:β = 10:1, n = 3): 0.24 μA

Compound: O=[N+]([O-])NC1=NCCN1Cc1ccc(Cl)nc1 [Imidacloprid]
- lethal effect / mortality of preadult parasites (L. salmonis (preadult 2)): significant lethal effect; also recorded: high mortality rates
- Efficacy at 1.0 mg/L (%) (L. salmonis (preadult 2)): 100.0%
- EC50 (nM) (Lsa-nAChR2 (α3β1β2); [1]): No effect
- type of effect on the receptor (agonist / partial-agonist / super-agonist / no effect) (Lsa-nAChR2 (α3β1β2); 1:1 (α:β) ratio): no effect; also recorded: did not affect; also recorded: did not demonstrate any ex-vivo effect
- EC50 (Lsa-nAChR1 (α1α2β1β2)): 69 nM
- agonist screening (pre- and co-application protocol) (Lsa-nAChR1 (α1α2β1β2); 1:1 (α:β) ratio): agonists
- Emax (Lsa-nAChR1 (α1α2β1β2)): 31.8%

Compound: N#C/N=C1\SCCN1Cc1ccc(Cl)nc1 [Thiacloprid]
- lethal effect / mortality of preadult parasites (L. salmonis (preadult 2)): significant lethal effect; also recorded: high mortality rates
- Efficacy at 1.0 mg/L (%) (L. salmonis (preadult 2)): 100.0%
- agonist screening (pre- and co-application protocol) (Lsa-nAChR2 (α3β1β2); 1:1 (α:β) ratio): agonists
- EC50 (nM) (Lsa-nAChR2 (α3β1β2); [1]): No effect
- type of effect on the receptor (agonist / partial-agonist / super-agonist / no effect) (Lsa-nAChR2 (α3β1β2); 1:1 (α:β) ratio): did not show any effect
- type of effect on the receptor (agonist / partial-agonist / super-agonist / no effect) (Lsa-nAChR2 (α3β1β2); 1:1 (α:β) ratio, listed as thiacloprid): did not affect; also recorded: did not demonstrate any ex-vivo effect
- agonist screening (pre- and co-application protocol) (Lsa-nAChR1 (α1α2β1β2); 1:1 (α:β) ratio): agonists
- EC50 (Lsa-nAChR1 (α1α2β1β2); [2]): 12 nM
- type of effect on the receptor (agonist / partial-agonist / no effect) (Lsa-nAChR1 (α1α2β1β2); 1:1 (α:β) ratio): partial-agonist
- Emax (Lsa-nAChR1 (α1α2β1β2)): 6.1%

Compound: CN/C(=N/CC1CCOC1)N[N+](=O)[O-] (stereo not drawn) [Dinotefuran]
- Efficacy at 1.0 mg/L (%) (L. salmonis (preadult 2)): 100.0%
- agonist screening (pre- and co-application protocol) (Lsa-nAChR2 (α3β1β2); 1:1 (α:β) ratio): agonists
- EC50 (Lsa-nAChR2 (α3β1β2); [2]): 757 nM
- type of effect on the receptor (agonist / partial-agonist / super-agonist / no effect) (Lsa-nAChR2 (α3β1β2); 1:1 (α:β) ratio): super-agonist
- Max peak (% Ach) (Lsa-nAChR2 (α3β1β2); 1:1 (α:β) ratio): 110.2%
- agonist screening (pre- and co-application protocol) (Lsa-nAChR1 (α1α2β1β2); 1:1 (α:β) ratio): agonists
- EC50 (Lsa-nAChR1 (α1α2β1β2); [2]): 220 nM
- type of effect on the receptor (agonist / partial-agonist / no effect) (Lsa-nAChR1 (α1α2β1β2); 1:1 (α:β) ratio): partial-agonists
- Emax (Lsa-nAChR1 (α1α2β1β2)): 69.8%

Compound: CN1COCN(Cc2cnc(Cl)s2)/C1=N\[N+](=O)[O-] [Thiamethoxam]
- Efficacy at 1.0 mg/L (%) (L. salmonis (preadult 2)): 0.0%
- EC50 (nM) (Lsa-nAChR2 (α3β1β2); [1]): No effect
- EC50 (nM) (Lsa-nAChR1 (α1α2β1β2); [1]): No effect

Compound: CC1(C)C(C=C(Cl)Cl)C1C(=O)OC(C#N)c1cccc(Oc2ccccc2)c1 (stereo not drawn) [Cypermethrin]
- EC50 (nM) (Lsa-nAChR2 (α3β1β2); [1]): No effect
- EC50 (nM) (Lsa-nAChR1 (α1α2β1β2); [1]): No effect

Compound: CCN(Cc1ccc(Cl)nc1)/C(=C/[N+](=O)[O-])NC [Nitenpyram]
- Efficacy at 1.0 mg/L (%) (L. salmonis (preadult 2)): 17.7%
- EC50 (Lsa-nAChR2 (α3β1β2)): 381 nM
- agonist screening (pre- and co-application protocol) (Lsa-nAChR2 (α3β1β2); 1:1 (α:β) ratio): agonists
- type of effect on the receptor (agonist / partial-agonist / super-agonist / no effect) (Lsa-nAChR2 (α3β1β2); 1:1 (α:β) ratio): partial-agonists
- Max peak (% Ach) (Lsa-nAChR2 (α3β1β2); 1:1 (α:β) ratio): 70.1%
- EC50 (Lsa-nAChR1 (α1α2β1β2)): 45 nM
- agonist screening (pre- and co-application protocol) (Lsa-nAChR1 (α1α2β1β2); 1:1 (α:β) ratio): agonists
- type of effect on the receptor (agonist / partial-agonist / no effect) (Lsa-nAChR1 (α1α2β1β2); 1:1 (α:β) ratio): partial-agonists
- Emax (Lsa-nAChR1 (α1α2β1β2)): 27.4%

Compound: CN1CCC[C@H]1c1cccnc1 [Nicotine]
- EC50 (Lsa-nAChR2 (α3β1β2); [2]): 9980 nM
- EC50 (Lsa-nAChR2 (α3β1β2); [3]): 9980 nM
- type of effect on the receptor (agonist / partial-agonist / super-agonist / no effect) (Lsa-nAChR2 (α3β1β2); 1:1 (α:β) ratio): partial-agonist
- Max peak (% Ach) (Lsa-nAChR2 (α3β1β2); 1:1 (α:β) ratio): 16.1%
- EC50 (Lsa-nAChR1 (α1α2β1β2); [2]): 3950 nM
- EC50 (Lsa-nAChR1 (α1α2β1β2); [3]): 3950 nM
- type of effect on the receptor (agonist / partial-agonist / no effect) (Lsa-nAChR1 (α1α2β1β2); 1:1 (α:β) ratio): partial-agonist
- Emax (Lsa-nAChR1 (α1α2β1β2)): 27.9%

Compound: CN/C(=N\[N+](=O)[O-])NCc1cnc(Cl)s1 [Clothianidin]
- Efficacy at 1.0 mg/L (%) (L. salmonis (preadult 2)): 54.3%
- EC50 (Lsa-nAChR2 (α3β1β2)): 81 nM
- agonist screening (pre- and co-application protocol) (Lsa-nAChR2 (α3β1β2); 1:1 (α:β) ratio): agonists
- type of effect on the receptor (agonist / partial-agonist / super-agonist / no effect) (Lsa-nAChR2 (α3β1β2); 1:1 (α:β) ratio): partial-agonists
- Max peak (% Ach) (Lsa-nAChR2 (α3β1β2); 1:1 (α:β) ratio): 75.4%
- EC50 (Lsa-nAChR1 (α1α2β1β2)): 37 nM
- agonist screening (pre- and co-application protocol) (Lsa-nAChR1 (α1α2β1β2); 1:1 (α:β) ratio): agonists
- type of effect on the receptor (agonist / partial-agonist / no effect) (Lsa-nAChR1 (α1α2β1β2); 1:1 (α:β) ratio): partial-agonists
- Emax (Lsa-nAChR1 (α1α2β1β2)): 41.9%

Compound: Emamectin
- EC50 (nM) (Lsa-nAChR2 (α3β1β2); [1]): No effect
- EC50 (nM) (Lsa-nAChR1 (α1α2β1β2); [1]): No effect

Compound: CC1(C)[C@H](C(=O)O[C@H](C#N)c2cccc(Oc3ccccc3)c2)[C@@H]1C=C(Br)Br [Deltamethrin]
- EC50 (nM) (Lsa-nAChR2 (α3β1β2); [1]): No effect
- EC50 (nM) (Lsa-nAChR1 (α1α2β1β2); [1]): No effect

Compound: C/C(=N\C#N)N(C)Cc1ccc(Cl)nc1 [Acetamiprid]
- lethal effect / mortality of preadult parasites (L. salmonis (preadult 2)): significant lethal effect; also recorded: high mortality rates
- Efficacy at 1.0 mg/L (%) (L. salmonis (preadult 2)): 89.5%
- EC50 (nM) (Lsa-nAChR2 (α3β1β2); [1]): No effect
- type of effect on the receptor (agonist / partial-agonist / super-agonist / no effect) (Lsa-nAChR2 (α3β1β2); 1:1 (α:β) ratio): did not affect; also recorded: did not demonstrate any ex-vivo effect
- EC50 (Lsa-nAChR1 (α1α2β1β2)): 10300 nM
- agonist screening (pre- and co-application protocol) (Lsa-nAChR1 (α1α2β1β2); 1:1 (α:β) ratio): agonists
- type of effect on the receptor (agonist / partial-agonist / no effect) (Lsa-nAChR1 (α1α2β1β2); 1:1 (α:β) ratio): partial-agonist
- Emax (Lsa-nAChR1 (α1α2β1β2)): 34.1%

From paper PMC7419010 (PLoS Pathogens, 2020)
